# Test results reported in US20080206311A1, “Sucrase Activity Inhibitor, Glucoamylase Activity Inhibitor and Food and Feed Containing the Same” (MITSUI SUGAR CO., LTD., priority 2005, published 2008).
# “Also recorded” adds a separate entry of the source.
# How the values were obtained:
# glucoamylase = assay: Ratio of inhibitor to the substrate dextrin (Examples 10, 11); type: biochemical, rat
# Description: Each 0.15 ml of a small intestinal enzyme solution was added to each 2.5 ml of the aforementioned 20 samples, each mixture, and placed in a water bath at 37° C. to allow reaction for 10 minutes while shaken at 60 strokes/min. At the end of the reaction, the mixture was heated in a boiling water bath for 3 min. for inactivation of the enzyme. As a blank, 0.15 ml of the intestinal enzyme solution was added to 0.1 M phosphate buffer (pH 6.8) and the enzyme was inactivated immediately.
# After the reaction, the glucose concentration in each solution was measured using the F-kit Glucose (ex Roche) as in Example 1.
# The procedures in Example 8 were repeated with the exception that sixteen samples with the concentrations shown in Table 13, Samples C-1 through C-16, were dissolved in 0.1 M phosphate buffer (pH 6.8) to a final volume of 2.5 ml.
# The procedures in Example 8 were repeated with the exception that sixteen samples with the concentrations shown in Table 14, Samples D-1 through D-16, were dissolved in 0.1 M phosphate buffer (pH 6.8) to a final volume of 2.5 ml.
# sucrase = biological target: T1, sucrase (Rattus norvegicus, UniProt P23739); assay: Sucrase activity inhibition with rat small-intestinal enzyme liquid, substrate sucrose; type: biochemical
# T1 construct: This liquid contained a mixture of enzymes present in small intestine, such as sucrose, glucoamylase, maltase, and isomaltase; tissue Sigma Corporation; host or cells: rat small intestine (acetone powder), buffer extract, unpurified
# Description: Palatinose (trade name: Palatinose IC, ex Shin Mitsui Sugar Co., Ltd.) (test sample) was used as a sample for investigating each enzyme activity inhibitory effect. Maltose and sucrose were used as substrates for maltase and sucrose, respectively. The test sample and the substrates were dissolved in 0.1 M phosphate buffer (pH 6.8) at the concentration shown in Table 1 below to prepare test solutions (Solutions 4 and 5). Also, the test sample or the substrates were dissolved in 0.1 M phosphate buffer (pH 6.8), respectively to at the concentration shown in Table 1 below to prepare control solutions (Solution 1 for the test sample and Solutions 2 and 3 for the substrates).
# Two grams of rat small-intestinal acetone powder (ex Sigma Corporation) were dissolved in 20 ml of 0.1 M phosphate buffer (pH 6.8), left standing one day at 5° C., and subsequently subjected to centrifugal separation (8000 rpm×15 min.). The supernatant was filtered through a 0.8 μm membrane filter to obtain a small-intestinal enzyme liquid. This liquid contained a mixture of enzymes present in small intestine, such as sucrose, glucoamylase, maltase, and isomaltase.
# Each 0.25 ml of the small-intestinal enzyme liquid was added to each 5 ml of Solutions 1 through 5 and placed in a water bath at 37° C. to allow them to react for 60 min. while shaken at 60 strokes/min. After the reaction, they were heated in a boiling water bath for 3 min. for inactivation of the enzymes.
# The glucose concentration in each solution after the reaction was measured using the F-kit Glucose (ex Roche). A liberated glucose concentration (g/l) was calculated by subtracting the blank value (0.1 M phosphate buffer alone) and the concentration of glucose originally contained in the test sample from each glucose concentration measured.
# Next, each of the liberated glucose concentration was input in the following equation to obtain decomposition inhibition ratio for maltase and sucrose. In the present tests, the substrates and the inhibitors were decomposed by enzymes present in the small-intestinal enzyme liquid. However, the enzymes decomposing the substrates are different from the enzymes decomposing the inhibitors. The decomposition inhibition ratio was determined as a measure for the inhibitory effect. When the inhibitor was added, the glucose concentration was lower than that seen when the substrate alone was reacted. A higher decomposition inhibition ratio means a stronger inhibitory effect.
# Decomposition inhibition ratio,%={(A+B)−(AB)}+(A+B)×100 [Equation 1]
# wherein (A+B) indicates a sum of a liberated glucose concentration in the control solution containing the test sample alone after the reaction (A) and a liberated glucose concentration in the control solution containing the substrate alone after the reaction (B); and (AB) indicates a liberated glucose concentration in the test solution containing the test sample (A) and the substrate (B), after the reaction.
# The procedures in Example 1 were repeated with the exception that the test solutions contained 5% of sucrose and 0.5%, 1.0%, 3.0% or 5.0% of palatinose to examine intensity of the sucrose activity inhibition. A control solution contained 5% of sucrose in 0.1 M phosphate buffer (pH 6.8).
# The procedures in Example 1 were repeated with the exception that palatinit and palatinose were used as test samples and sucrose was used as a substrate. The test samples and the substrate were dissolved in 0.1 M phosphate buffer (pH 6.8) to attain the concentration shown in Table 3 to thereby prepare two test solutions. Besides, each one of the test samples or the substrate was dissolved in 0.1 M phosphate buffer (pH 6.8) to attain the concentration shown in Table 3 to thereby prepare control solutions. Each 5 ml of the aforementioned test solutions or the control solutions was subjected to the enzymatic reaction according to the same procedures as in Example 1. The glucose concentration and the fructose concentration were measured. […]
# [1] = biological target: (Homo sapiens, UniProt P14410); conditions: 4.3-56 mM sucrose as substrate, 14 mM palatinose as inhibitor; cited from earlier work
# [2] = 5% sucrose + 5% test sample, Example 3 / Test Example 2
# T1 sequence (P23739 whole entry): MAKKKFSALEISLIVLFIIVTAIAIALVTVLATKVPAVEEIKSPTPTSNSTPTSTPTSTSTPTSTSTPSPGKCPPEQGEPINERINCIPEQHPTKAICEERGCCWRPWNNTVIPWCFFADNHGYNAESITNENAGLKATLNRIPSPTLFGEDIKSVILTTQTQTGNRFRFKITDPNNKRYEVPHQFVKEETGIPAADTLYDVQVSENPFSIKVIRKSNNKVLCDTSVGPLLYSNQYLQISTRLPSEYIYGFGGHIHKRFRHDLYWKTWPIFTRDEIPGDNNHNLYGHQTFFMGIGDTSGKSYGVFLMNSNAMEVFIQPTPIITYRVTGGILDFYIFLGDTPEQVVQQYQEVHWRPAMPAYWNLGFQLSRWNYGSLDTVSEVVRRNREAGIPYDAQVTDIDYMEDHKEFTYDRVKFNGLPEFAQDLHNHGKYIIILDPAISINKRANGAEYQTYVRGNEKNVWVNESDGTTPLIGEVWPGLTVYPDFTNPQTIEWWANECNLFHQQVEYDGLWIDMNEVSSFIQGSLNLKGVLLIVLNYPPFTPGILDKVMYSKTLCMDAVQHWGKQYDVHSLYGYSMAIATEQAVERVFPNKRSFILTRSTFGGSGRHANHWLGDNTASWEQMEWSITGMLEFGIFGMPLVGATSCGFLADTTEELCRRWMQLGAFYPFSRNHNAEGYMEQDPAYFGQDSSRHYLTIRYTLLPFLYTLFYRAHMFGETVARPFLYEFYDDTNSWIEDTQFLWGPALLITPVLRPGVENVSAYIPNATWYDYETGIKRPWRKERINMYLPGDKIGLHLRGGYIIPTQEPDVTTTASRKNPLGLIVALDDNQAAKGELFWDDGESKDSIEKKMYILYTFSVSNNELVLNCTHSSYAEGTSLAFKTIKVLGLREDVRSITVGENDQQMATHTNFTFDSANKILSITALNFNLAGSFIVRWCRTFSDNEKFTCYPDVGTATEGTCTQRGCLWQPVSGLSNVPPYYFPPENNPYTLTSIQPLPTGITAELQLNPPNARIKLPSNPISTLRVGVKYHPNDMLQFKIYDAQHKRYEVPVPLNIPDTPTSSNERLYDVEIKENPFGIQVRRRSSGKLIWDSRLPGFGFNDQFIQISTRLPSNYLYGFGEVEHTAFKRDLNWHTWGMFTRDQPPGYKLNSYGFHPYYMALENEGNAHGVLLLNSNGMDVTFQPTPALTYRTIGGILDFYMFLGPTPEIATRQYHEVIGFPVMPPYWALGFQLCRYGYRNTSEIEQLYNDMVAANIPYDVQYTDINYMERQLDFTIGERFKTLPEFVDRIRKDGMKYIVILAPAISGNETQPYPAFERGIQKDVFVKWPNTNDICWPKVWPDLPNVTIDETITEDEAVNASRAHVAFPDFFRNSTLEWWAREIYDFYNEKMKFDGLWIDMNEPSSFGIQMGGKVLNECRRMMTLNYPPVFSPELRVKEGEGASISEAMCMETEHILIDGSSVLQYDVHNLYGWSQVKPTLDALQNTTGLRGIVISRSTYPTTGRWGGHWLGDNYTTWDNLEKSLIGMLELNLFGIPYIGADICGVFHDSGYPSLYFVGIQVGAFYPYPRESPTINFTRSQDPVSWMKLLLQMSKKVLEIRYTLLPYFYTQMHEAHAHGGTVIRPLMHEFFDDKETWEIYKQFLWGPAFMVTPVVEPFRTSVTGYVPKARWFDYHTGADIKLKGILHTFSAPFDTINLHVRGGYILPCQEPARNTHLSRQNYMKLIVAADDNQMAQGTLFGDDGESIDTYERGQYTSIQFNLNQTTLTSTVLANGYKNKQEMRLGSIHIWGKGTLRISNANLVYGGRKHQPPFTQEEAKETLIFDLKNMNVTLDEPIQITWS
# Chain of (Homo sapiens, UniProt P14410) (P14410 whole entry): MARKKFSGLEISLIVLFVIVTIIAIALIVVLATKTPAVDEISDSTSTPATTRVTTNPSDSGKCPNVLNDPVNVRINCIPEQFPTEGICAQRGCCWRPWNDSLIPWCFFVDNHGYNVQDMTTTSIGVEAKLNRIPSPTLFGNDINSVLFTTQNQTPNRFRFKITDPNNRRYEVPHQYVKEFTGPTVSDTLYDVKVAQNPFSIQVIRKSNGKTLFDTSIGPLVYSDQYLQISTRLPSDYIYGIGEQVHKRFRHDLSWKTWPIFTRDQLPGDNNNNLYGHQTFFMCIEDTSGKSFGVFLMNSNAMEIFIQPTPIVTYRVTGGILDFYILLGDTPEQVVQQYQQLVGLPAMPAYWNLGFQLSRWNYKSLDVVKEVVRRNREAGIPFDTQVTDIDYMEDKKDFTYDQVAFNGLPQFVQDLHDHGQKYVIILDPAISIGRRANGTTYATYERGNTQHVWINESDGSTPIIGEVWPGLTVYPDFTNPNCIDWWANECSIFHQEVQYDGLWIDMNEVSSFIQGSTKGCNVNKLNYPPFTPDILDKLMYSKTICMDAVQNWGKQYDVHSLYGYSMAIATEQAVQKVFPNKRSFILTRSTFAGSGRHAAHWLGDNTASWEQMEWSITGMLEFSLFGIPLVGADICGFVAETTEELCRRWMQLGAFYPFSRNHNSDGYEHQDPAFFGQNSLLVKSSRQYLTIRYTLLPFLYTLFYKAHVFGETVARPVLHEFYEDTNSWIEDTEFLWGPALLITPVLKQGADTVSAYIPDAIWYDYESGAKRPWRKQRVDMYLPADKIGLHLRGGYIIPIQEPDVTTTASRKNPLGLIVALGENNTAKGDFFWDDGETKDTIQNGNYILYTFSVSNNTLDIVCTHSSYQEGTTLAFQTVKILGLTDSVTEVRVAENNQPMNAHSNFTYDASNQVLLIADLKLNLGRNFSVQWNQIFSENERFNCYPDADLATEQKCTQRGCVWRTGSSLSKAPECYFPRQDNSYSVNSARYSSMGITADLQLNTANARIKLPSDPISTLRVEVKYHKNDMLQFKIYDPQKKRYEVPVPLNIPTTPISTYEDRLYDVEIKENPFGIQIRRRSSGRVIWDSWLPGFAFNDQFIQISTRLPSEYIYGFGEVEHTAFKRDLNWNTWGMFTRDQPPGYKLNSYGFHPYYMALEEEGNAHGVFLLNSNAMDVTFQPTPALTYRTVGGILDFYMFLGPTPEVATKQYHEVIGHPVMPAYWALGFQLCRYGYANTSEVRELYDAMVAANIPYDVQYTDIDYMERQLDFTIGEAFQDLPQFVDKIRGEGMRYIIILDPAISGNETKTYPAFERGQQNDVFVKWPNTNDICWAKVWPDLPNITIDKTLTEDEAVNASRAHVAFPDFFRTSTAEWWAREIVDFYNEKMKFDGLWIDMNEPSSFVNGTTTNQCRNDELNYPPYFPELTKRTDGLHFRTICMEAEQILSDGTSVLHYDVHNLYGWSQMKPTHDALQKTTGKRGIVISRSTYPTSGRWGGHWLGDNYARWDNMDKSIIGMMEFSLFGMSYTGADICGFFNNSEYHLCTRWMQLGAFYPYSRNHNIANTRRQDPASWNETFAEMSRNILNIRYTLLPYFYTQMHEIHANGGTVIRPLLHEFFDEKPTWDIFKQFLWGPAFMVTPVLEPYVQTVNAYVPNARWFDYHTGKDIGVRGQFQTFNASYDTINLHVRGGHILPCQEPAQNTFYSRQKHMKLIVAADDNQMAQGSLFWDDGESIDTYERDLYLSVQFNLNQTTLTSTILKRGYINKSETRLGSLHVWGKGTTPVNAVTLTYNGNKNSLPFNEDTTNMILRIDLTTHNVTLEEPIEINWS
compound,measurement,setting,value
"OC[C@H]1O[C@H](OC[C@H]2OC(O)(CO)[C@@H](O)[C@@H]2O)[C@H](O)[C@@H](O)[C@@H]1O (stereo partly shown) [palatinose, isomaltulose]",Ratio of inhibitor added relative to the weight of dextrin at which the inhibitory effect on decomposition of dextrin was seen at all dextrin concentrations,"glucoamylase; dextrin 0.5%, 2%, 5%, 10%, FIG. 8 (palatinose), FIG. 9 (palatinit)",above 10%
same,Inhibitory effect on decomposition of dextrin (FIG. 8),"glucoamylase; palatinose 5% relative to the weight of dextrin, dextrin concentration 10%",no inhibitory effect on decomposition of dextrin was seen
same,"Intensity of the sucrase activity inhibition, dependence on concentration (FIG. 1)","sucrase; 5% sucrose + 0.5%, 1.0%, 3.0% or 5.0% palatinose",inhibits sucrose activity depending upon its concentration
same,Sucrase activity inhibitory effect (in words),sucrase; 5% sucrose + 5% test sample,a sucrose activity inhibitory effect; also recorded: have a sucrose inhibitory effect
same,Liberated glucose concentration,"sucrase; 5% sucrose + 5% test sample, 37° C., 60 min, Example 1 / Test Example 1",0.803 ± 0.055 g/L
same,"Decomposition inhibition ratio, %, against sucrase","sucrase; 5% sucrose + 5% test sample, Equation 1, Example 1 / Test Example 1",24%
same,"Decomposition inhibition ratio, %, against sucrase",sucrase; [2],29%
same,Liberated fructose concentration,sucrase; [2],1.05 g/L
same,Liberated glucose concentration,sucrase; [2],0.79 g/L
same,Inhibitory effect on the sucrase activity (reported),[1],no inhibitory effect
